From patent US20100137449A1, “SUBSTITUTED 1,3-CYCLOPENTADIONE MULTI-TARGET PROTEIN KINASE MODULATORS OF CANCER, ANGIOGENESIS AND THE INFLAMMATORY PATHWAYS ASSOCIATED THEREWITH” (METAPROTEOMICS, LLC, priority 2007, published 2010)

Tests used:
Experiment in all cases: KinaseProfiler Assay
[1] = biological target: FGFR4(h) (Homo sapiens, UniProt P22455)
[2] = biological target: CDK5/p25(h) (Homo sapiens, UniProt Q00535)
[3] = biological target: cSRC(h) (Homo sapiens, UniProt P12931)
[4] = biological target: CaMKI(h) (Homo sapiens, UniProt Q14012)
Sequence of CaMKI(h) (Q14012 whole entry): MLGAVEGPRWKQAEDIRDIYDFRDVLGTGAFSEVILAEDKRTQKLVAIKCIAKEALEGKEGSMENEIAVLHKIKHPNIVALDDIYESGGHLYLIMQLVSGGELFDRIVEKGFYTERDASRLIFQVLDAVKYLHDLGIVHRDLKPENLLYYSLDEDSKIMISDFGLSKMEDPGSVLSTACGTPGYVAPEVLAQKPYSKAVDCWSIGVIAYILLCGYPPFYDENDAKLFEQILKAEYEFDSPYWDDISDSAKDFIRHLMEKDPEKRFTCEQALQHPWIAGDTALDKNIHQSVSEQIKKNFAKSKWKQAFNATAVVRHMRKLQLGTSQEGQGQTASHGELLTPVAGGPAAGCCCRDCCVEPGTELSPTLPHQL

[5] = biological target: T1, ARK5(h) (Homo sapiens, UniProt O60285)
T1 sequence (O60285 1-661): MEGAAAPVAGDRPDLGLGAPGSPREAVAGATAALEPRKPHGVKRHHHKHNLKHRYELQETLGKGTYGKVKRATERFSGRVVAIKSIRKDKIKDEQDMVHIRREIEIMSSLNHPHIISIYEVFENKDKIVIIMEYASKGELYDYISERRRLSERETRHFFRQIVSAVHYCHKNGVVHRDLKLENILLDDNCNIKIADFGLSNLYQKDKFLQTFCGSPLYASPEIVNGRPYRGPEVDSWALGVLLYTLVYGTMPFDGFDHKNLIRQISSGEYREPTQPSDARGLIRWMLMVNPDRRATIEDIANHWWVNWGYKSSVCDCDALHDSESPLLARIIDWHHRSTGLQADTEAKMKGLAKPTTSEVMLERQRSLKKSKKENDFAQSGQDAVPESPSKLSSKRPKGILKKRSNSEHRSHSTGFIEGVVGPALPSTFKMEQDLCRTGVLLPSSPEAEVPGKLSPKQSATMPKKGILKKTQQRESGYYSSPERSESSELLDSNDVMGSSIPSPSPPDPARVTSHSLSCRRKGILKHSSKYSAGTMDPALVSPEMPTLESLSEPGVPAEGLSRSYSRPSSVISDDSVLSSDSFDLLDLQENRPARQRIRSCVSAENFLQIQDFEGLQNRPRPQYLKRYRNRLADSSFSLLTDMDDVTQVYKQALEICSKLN

[6] = biological target: EGFR(L858R)(h) (Homo sapiens, UniProt P00533, L858R)
Sequence of EGFR(L858R)(h) (P00533 25-1210 L858R): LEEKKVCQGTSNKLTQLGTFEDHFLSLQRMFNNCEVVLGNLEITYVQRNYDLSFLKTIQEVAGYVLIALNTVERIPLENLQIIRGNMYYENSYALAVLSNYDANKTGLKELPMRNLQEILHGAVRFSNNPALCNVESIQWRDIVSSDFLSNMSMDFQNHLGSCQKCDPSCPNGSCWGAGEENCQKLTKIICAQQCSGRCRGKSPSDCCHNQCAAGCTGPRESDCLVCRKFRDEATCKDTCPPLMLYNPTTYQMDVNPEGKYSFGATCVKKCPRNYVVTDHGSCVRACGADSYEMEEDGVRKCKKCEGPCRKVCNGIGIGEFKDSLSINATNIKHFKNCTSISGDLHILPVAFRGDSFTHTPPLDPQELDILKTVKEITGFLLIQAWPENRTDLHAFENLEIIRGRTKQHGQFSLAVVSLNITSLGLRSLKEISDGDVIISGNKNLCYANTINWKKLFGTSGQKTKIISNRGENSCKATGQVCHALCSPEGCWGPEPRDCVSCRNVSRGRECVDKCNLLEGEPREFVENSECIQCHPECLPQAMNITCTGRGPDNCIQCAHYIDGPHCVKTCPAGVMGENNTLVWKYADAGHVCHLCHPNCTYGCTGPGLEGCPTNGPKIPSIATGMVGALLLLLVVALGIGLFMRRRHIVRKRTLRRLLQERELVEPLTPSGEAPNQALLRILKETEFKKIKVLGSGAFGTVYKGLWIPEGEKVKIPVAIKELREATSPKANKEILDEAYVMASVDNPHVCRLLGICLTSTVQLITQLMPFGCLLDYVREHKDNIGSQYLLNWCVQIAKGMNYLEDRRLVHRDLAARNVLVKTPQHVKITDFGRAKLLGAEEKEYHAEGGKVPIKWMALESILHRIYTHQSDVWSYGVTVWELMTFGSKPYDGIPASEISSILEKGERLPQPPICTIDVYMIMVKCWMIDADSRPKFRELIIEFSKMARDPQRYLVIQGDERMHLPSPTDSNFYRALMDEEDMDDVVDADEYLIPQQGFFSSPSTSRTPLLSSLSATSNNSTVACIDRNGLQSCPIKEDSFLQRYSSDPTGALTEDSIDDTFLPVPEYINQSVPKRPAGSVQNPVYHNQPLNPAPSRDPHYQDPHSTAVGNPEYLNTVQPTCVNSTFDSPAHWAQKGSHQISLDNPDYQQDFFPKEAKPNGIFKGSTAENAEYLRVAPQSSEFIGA

[7] = biological target: T2, PKCε(h) (Homo sapiens, UniProt Q02156)
T2 sequence (Q02156 1-737): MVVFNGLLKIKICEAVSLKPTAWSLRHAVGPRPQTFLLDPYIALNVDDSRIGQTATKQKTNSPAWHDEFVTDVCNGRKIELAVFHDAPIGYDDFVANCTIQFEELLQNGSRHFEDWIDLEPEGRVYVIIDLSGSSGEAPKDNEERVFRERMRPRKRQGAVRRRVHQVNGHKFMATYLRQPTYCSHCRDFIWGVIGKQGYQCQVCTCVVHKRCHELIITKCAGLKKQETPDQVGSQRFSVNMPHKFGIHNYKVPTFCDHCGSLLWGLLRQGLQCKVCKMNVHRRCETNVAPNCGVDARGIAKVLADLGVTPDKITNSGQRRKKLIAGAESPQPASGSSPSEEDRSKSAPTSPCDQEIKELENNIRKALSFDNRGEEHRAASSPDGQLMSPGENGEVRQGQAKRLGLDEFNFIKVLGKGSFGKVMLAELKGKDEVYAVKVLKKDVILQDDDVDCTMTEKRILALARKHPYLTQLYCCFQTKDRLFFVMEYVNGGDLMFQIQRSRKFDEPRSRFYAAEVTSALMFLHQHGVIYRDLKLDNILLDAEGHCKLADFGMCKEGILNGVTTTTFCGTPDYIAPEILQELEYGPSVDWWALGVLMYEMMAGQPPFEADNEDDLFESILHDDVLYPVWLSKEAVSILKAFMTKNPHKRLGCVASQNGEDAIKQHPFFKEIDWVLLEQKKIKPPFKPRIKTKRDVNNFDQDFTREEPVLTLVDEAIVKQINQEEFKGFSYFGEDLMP

[8] = biological target: CHK2(I157T)(h) (Homo sapiens, UniProt O96017, I157T)
Sequence of CHK2(I157T)(h) (O96017 whole entry I157T): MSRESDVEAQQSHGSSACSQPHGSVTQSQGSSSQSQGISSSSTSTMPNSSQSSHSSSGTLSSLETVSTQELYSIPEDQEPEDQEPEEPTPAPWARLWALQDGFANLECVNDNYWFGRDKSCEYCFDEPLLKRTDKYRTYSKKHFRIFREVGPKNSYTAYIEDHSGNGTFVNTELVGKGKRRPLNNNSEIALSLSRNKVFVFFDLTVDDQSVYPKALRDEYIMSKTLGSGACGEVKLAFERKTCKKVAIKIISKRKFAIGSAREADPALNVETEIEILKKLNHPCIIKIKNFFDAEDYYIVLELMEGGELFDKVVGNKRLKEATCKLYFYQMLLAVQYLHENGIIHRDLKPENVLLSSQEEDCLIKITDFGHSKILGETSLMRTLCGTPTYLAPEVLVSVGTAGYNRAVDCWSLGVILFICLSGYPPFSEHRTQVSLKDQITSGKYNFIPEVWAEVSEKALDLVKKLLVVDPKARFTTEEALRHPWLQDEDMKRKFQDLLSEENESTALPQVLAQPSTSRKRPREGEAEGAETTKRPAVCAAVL

Sequence of CDK5/p25(h) (Q00535 whole entry): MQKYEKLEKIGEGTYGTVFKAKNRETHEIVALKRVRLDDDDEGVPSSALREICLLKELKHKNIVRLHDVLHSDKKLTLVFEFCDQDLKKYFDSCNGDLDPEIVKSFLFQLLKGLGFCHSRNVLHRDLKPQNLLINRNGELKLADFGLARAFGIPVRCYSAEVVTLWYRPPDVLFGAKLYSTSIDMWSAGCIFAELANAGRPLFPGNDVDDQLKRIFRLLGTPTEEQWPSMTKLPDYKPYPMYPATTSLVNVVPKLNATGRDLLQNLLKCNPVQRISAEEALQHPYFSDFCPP
Sequence of CDK5/p25(h) (Q15078 99-307 partner limits assumed): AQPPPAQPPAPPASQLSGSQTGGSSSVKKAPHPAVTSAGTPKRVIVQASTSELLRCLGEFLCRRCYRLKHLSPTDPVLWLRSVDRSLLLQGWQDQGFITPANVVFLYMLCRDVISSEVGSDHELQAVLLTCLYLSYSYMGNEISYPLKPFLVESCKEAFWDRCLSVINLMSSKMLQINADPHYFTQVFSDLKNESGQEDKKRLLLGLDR
Sequence of cSRC(h) (P12931 whole entry): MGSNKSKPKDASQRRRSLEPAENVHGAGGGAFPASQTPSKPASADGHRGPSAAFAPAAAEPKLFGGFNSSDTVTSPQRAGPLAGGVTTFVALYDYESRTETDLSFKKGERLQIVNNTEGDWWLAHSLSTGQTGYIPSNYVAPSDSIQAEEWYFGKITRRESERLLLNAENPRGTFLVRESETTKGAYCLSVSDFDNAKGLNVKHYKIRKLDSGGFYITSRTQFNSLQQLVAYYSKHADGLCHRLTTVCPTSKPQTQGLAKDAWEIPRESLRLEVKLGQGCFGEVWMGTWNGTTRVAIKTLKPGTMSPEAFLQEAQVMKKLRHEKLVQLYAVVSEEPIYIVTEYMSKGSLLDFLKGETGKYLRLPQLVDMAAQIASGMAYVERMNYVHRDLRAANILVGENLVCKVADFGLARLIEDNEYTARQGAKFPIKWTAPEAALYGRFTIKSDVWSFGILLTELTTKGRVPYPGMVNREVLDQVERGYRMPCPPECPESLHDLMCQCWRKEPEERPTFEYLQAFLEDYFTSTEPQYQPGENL
Sequence of FGFR4(h) (P22455 22-802): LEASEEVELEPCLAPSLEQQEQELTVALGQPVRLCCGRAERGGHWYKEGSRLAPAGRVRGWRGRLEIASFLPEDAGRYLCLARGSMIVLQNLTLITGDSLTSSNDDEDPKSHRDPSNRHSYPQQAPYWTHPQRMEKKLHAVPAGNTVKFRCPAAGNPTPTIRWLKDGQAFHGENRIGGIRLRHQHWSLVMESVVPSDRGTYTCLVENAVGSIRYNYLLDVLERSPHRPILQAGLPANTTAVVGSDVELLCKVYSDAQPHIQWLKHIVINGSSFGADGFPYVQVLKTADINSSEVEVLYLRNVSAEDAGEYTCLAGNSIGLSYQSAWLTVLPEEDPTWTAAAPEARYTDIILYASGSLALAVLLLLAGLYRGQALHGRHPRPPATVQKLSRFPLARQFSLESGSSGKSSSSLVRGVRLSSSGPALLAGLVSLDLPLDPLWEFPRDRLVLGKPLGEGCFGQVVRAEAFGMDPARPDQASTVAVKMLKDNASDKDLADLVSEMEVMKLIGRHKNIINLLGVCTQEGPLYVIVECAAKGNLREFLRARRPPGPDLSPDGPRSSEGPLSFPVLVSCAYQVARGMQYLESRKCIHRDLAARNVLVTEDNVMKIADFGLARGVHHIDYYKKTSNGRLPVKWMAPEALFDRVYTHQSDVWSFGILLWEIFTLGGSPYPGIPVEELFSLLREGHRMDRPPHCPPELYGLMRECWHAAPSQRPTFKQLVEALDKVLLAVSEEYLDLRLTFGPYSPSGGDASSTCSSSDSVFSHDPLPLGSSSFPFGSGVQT

CC(C)CCC(=O)[C@]1(O)C(O)=C(C(=O)C(C)C)C(=O)[C@H]1CCC(C)C [TH2, tetrahydroiso-cohumulone]
kinase inhibition ([1]; 1 μg/ml): 89% of control
kinase inhibition ([1]; 5 μg/ml): 81% of control
kinase inhibition ([1]; 25 μg/ml): 55% of control
kinase inhibition ([1]; 50 μg/ml): 64% of control
kinase inhibition ([1]; 100 μg/ml): 55% of control
kinase inhibition ([2]; 1 μg/ml): 93% of control
kinase inhibition ([2]; 5 μg/ml): 96% of control
kinase inhibition ([2]; 25 μg/ml): 103% of control
kinase inhibition ([2]; 50 μg/ml): 88% of control
kinase inhibition ([2]; 100 μg/ml): 77% of control
kinase inhibition ([3]; 1 μg/ml): 114% of control
kinase inhibition ([3]; 5 μg/ml): 114% of control
kinase inhibition ([3]; 25 μg/ml): 108% of control
kinase inhibition ([3]; 50 μg/ml): 101% of control
kinase inhibition ([3]; 100 μg/ml): 87% of control
kinase inhibition ([4]; 1 μg/ml): 96% of control
kinase inhibition ([4]; 5 μg/ml): 93% of control
kinase inhibition ([4]; 25 μg/ml): 73% of control
kinase inhibition ([4]; 50 μg/ml): 48% of control
kinase inhibition ([4]; 100 μg/ml): 48% of control
kinase inhibition ([5]; 1 μg/ml): 103% of control
kinase inhibition ([5]; 5 μg/ml): 104% of control
kinase inhibition ([5]; 25 μg/ml): 99% of control
kinase inhibition ([5]; 50 μg/ml): 77% of control
kinase inhibition ([5]; 100 μg/ml): 74% of control
kinase inhibition ([6]; 1 μg/ml): 109% of control
kinase inhibition ([6]; 5 μg/ml): 117% of control
kinase inhibition ([6]; 25 μg/ml): 104% of control
kinase inhibition ([6]; 50 μg/ml): 90% of control
kinase inhibition ([6]; 100 μg/ml): 70% of control
kinase inhibition ([7]; 1 μg/ml): 105% of control
kinase inhibition ([7]; 5 μg/ml): 102% of control
kinase inhibition ([7]; 25 μg/ml): 98% of control
kinase inhibition ([7]; 50 μg/ml): 102% of control
kinase inhibition ([7]; 100 μg/ml): 90% of control
kinase inhibition ([8]; 1 μg/ml): 108% of control
kinase inhibition ([8]; 5 μg/ml): 104% of control
kinase inhibition ([8]; 25 μg/ml): 94% of control
kinase inhibition ([8]; 50 μg/ml): 83% of control
kinase inhibition ([8]; 100 μg/ml): 74% of control
